In US20140179681A1, “METHODS AND COMPOSITIONS OF TARGETED DRUG DEVELOPMENT” (priority 2010, published 2014):
Like-named read-outs stand apart in the source and are kept apart here.

What was measured:
[1] = system: epithelial carcinoma A431 cell line; experiment: MTT Cell Proliferation Assay, A431 cells; format: cell-based
Summary of the method: (§1)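 Viability was measured by mitochondrial MTT reduction after cells were exposed to compound for 3 days in reduced-serum medium. Inhibition was calculated per plate against 0.5% DMSO controls.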

[2] = system: MDBK line; experiment: MTT Cell Proliferation Assay, MDBK cells; format: cell-based, bovine
Summary of the method: as §1

[3] = biological target: T1, EGFR (Homo sapiens, UniProt P00533); experiment: EGFR in-cell Western (ICW) screening protocol (EGFR inhibition assay); format: cell-based
T1 construct: host or cells: A431
Summary of the method: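 Serum-starved A431 cells (2 h) were pretreated with compound for 4 h at 37° C, then stimulated with EGF (10 ng/ml final, or 6.6 or 12.5 ng/ml in some runs) for 10 min. After formaldehyde fixation, phospho-EGFR (Tyr1173, or Tyr1045 in some runs) and total EGFR were detected by in-cell Western immunostaining.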

[4] = Homo sapiens, A-431, first value of 'a/b (c)', taken as A431 cells, read-out: MTT Screen, first value of cell
[5] = Bos taurus, MDBK, second value of 'a/b (c)', taken as MDBK cells, read-out: MTT Screen, second value of cell
[6] = first value of 'a/b (c)', taken as A431 cells
[7] = second value of 'a/b (c)', taken as MDBK cells
[8] = first value of 'a/b (c)', taken as A431 cells, read-out: MTT Screen, first value of cell
[9] = second value of 'a/b (c)', taken as MDBK cells, read-out: MTT Screen, second value of cell

T1 sequence (P00533 25-1210): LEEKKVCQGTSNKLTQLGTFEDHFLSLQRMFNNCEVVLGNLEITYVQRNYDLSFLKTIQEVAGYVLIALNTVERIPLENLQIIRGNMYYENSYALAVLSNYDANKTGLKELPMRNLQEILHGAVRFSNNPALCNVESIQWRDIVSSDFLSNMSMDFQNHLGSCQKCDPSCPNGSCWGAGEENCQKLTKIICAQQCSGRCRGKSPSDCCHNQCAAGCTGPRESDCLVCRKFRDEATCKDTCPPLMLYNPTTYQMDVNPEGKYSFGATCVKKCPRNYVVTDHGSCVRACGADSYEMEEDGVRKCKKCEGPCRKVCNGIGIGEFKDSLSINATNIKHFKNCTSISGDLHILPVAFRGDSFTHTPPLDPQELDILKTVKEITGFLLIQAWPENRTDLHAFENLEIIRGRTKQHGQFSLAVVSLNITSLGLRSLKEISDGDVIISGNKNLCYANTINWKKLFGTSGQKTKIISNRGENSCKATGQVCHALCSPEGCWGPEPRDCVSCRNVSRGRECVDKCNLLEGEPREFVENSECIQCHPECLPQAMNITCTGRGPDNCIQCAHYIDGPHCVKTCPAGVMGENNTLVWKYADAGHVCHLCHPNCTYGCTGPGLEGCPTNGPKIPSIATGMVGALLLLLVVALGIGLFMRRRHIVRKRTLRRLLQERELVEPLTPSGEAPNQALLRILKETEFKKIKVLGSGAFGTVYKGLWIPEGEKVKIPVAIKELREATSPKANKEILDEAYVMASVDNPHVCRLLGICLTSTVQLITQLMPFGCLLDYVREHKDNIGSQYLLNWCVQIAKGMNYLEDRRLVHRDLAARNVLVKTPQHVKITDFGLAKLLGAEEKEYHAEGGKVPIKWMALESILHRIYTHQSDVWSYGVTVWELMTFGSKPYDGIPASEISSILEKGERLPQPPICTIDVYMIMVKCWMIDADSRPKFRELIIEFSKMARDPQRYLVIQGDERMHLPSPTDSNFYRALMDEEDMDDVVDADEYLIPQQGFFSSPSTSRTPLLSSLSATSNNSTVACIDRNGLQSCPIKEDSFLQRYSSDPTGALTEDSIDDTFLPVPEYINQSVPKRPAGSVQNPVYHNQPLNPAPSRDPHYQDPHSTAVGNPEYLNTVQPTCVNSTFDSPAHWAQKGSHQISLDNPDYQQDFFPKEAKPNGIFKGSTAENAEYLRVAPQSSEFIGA

| SMILES | IC50 [1, 4] [µM] | ICW Screen (ICW Inhibition) [3] | IC50 [2, 5] [µM] | other results |
| --- | --- | --- | --- | --- |
| COc1ccc(NC(=S)Nc2ccc(S(=O)(=O)Nc3ccc(Cl)c(Cl)c3)cc2)cc1OC [AD4-11432] | – | – | – | IC50 ([1]; Table 10, first of x/y(ratio): A431, three day treatment, unit not printed (doses in μM), read-out: MTT assay (first value)): 7.8 µM; IC50 ([2]; Table 10, second of x/y(ratio): MDBK, three day treatment, unit not printed (doses in μM), read-out: MTT assay (second value)): 7.82 µM; ICW assay ([3]; Table 10, % Inhibition of EGF dependent EGFR phosphorylation in A431 cells, compound 125 μM in assay): 47.0006 |
| CC(C)NS(=O)(=O)c1ccc(NC(=S)NC(=O)CCCCCOc2ccc(Cl)cc2Cl)cc1 [AD4-11538] | 5.48 | 34.978 | 5.19 | – |
| CCc1nnc(NS(=O)(=O)c2ccc(NC(=S)NC(=O)/C=C/c3ccc(OC)cc3)cc2)s1 [AD4-11637] | – | 33.491 | 17.8 | MTT Screen, first value of cell [1, 6]: non- conver- gent |
| COc1ccc(/C=C/C(=O)NC(=S)Nc2ccc(S(=O)(=O)Nc3cc(C)on3)cc2)cc1 [AD4-11867] | 51 | 32.432 | 48.1 | – |
| COc1cc(NS(=O)(=O)c2ccc(NC(=S)NC(=O)/C=C/c3ccc(C)cc3)cc2)nc(OC)n1 [AD4-11874] | 35 | 32.474 | 39 | – |
| CCc1nnc(NS(=O)(=O)c2ccc(NC(=S)NC(=O)/C=C/c3cccs3)cc2)s1 [AD4-11880] | 47.3 | 37.604 | 47.3 | – |
| COc1ccc(/C=C/C(=O)NC(=S)Nc2ccc(S(=O)(=O)Nc3nc(C)cc(C)n3)cc2)cc1OC [AD4-11883] | 19.5 | 83.13 | – | MTT Screen, second value of cell [2, 7]: non- conver- gent |
| Cc1ccc(NS(=O)(=O)c2ccc(NC(=S)NC(=O)C(C)(C)C)cc2)c(C)c1 [AD4-11968] | 6.49 | 45.095 | 6.29 | – |
| CC(C)CC(=O)NC(=S)Nc1ccc(S(=O)(=O)Nc2ccccc2)cc1 [AD4-11975] | 17.5 | 75.826 | 17.2 | – |
| C=CCN(CC=C)S(=O)(=O)c1ccc(NC(=S)NC(=O)/C=C/c2cccs2)cc1 [AD4-11979] | 9.31 | 39.775 | 16.2 | – |
| CCOC(=O)CCC(=O)NC(=S)Nc1ccc(S(=O)(=O)Nc2cc(OC)nc(OC)n2)cc1 [AD4-11980] | 49.8 | 25.235 | 24.4 | – |
| CC(C)C(=O)NC(=S)Nc1ccc(S(=O)(=O)NC2CCCCC2)cc1 [AD4-11985] | 62.5 | 40.346 | 39.9 | – |
| Cc1ccc(NS(=O)(=O)c2ccc(NC(=S)NC(=O)C(C)C)cc2)cc1C [AD4-12003] | 11.5 | 32.007 | 12.8 | – |
| Cc1ccc(NS(=O)(=O)c2ccc(NC(=S)NC(=O)CC(C)C)cc2)c(C)c1 [AD4-12010] | 6.68 | 33.772 | 6.16 | – |
| Cc1ccc(NS(=O)(=O)c2ccc(NC(=S)NC(=O)CC(C)C)cc2)cc1C [AD4-12024] | 6.77 | 31.244 | 6.34 | – |
| COc1ccc(NS(=O)(=O)c2ccc(NC(=S)NC(=O)CC(C)C)cc2)cc1 [AD4-12040] | 17.1 | 47.822 | 14.8 | – |
| O=C(NC(=S)Nc1ccc(S(=O)(=O)Nc2ccccc2)cc1)C1CCC1 [AD4-12044] | 63.2 | 34.334 | 33.1 | – |
| CCN(CC)S(=O)(=O)c1ccc(NC(=S)NC(=O)CC(C)C)cc1 [AD4-12049] | 32.3 | 36.966 | 12 | – |
| CN1CCN(S(=O)(=O)c2ccc(NC(=S)NC(=O)/C=C/c3cccs3)cc2)CC1 [AD4-12060] | 48.5 | 34.272 | 40.5 | – |
| O=C(NC(=S)Nc1ccc(S(=O)(=O)N2CCCCC2)cc1)C1CCC1 [AD4-12064] | – | 34.778 | – | IC50 [1, 8]: 47.8 µM; IC50 [2, 9]: 42.7 µM |
| Cc1ccccc1OCC(=O)NC(=S)Nc1ccc(S(=O)(=O)NC2CCCCC2)cc1 [AD4-12073] | 19.5 | 29.313 | 32.3 | IC50 [1, 8]: 11.6 µM; IC50 [2, 9]: 17 µM |
| Cc1ccc(NS(=O)(=O)c2ccc(NC(=S)NC(=O)C3CC3)cc2)c(C)c1 [AD4-12097] | 15.1 | 48.543 | 9.85 | – |

More lines, main results first:

| IC50 [1, 4] [µM] | ICW Screen (ICW Inhibition) [3] | SMILES | IC50 [2, 5] [µM] | other results |
| --- | --- | --- | --- | --- |
| 11.2 | 68.754 | COc1cc(NS(=O)(=O)c2ccc(NC(=S)NC(=O)/C=C/c3ccc(C(C)C)cc3)cc2)nc(OC)n1 [AD4-11638] | 14.9 | – |
| 9.89 | 40.922 | Cc1cc(C)nc(NS(=O)(=O)c2ccc(NC(=S)NC(=O)/C=C/c3ccc(C(C)C)cc3)cc2)n1 [AD4-11642] | 9.46 | – |
| 45.6 | 66.452 | COc1ccc(/C=C/C(=O)NC(=S)Nc2ccc(S(=O)(=O)Nc3cc(OC)nc(OC)n3)cc2)cc1 [AD4-11645] | 47 | – |
| 19.4 | 37.949 | COc1ccc(/C=C/C(=O)NC(=S)Nc2ccc(S(=O)(=O)Nc3nc(C)cc(C)n3)cc2)cc1 [AD4-11646] | 21.1 | – |
| 46.7 | 38.362 | Cc1cc(C)nc(NS(=O)(=O)c2ccc(NC(=S)NC(=O)/C=C/c3ccc(Cl)cc3)cc2)n1 [AD4-11648] | 45.1 | – |
| 55.1 | 30.849 | COc1cc(NS(=O)(=O)c2ccc(NC(=S)NC(=O)/C=C/c3ccco3)cc2)ncn1 [AD4-11870] | 47.3 | – |
| 49.7 | 45.776 | Cc1cc(C)nc(NS(=O)(=O)c2ccc(NC(=S)NC(=O)/C=C/c3ccc(F)cc3)cc2)n1 [AD4-11871] | 41.8 | – |
| 63.3 | 34.08 | COc1cc(NS(=O)(=O)c2ccc(NC(=S)NC(=O)/C=C/c3cccs3)cc2)nc(OC)n1 [AD4-11881] | 46.5 | – |
| – | 32.38 | Cc1cc(NS(=O)(=O)c2ccc(NC(=S)NC(=O)/C=C/c3ccccc3)cc2)no1 [AD4-11885] | – | IC50 [1, 8]: 37.8 µM; IC50 [2, 9]: 48.3 µM |
| 41.5 | 44.908 | COc1ccc(NS(=O)(=O)c2ccc(NC(=S)NC(=O)C(C)C)cc2)cc1 [AD4-11971] | 41.1 | – |
| 32.5 | 33.588 | CC1CCN(S(=O)(=O)c2ccc(NC(=S)NC(=O)C(C)C)cc2)CC1 [AD4-11977] | – | MTT Screen, second value of cell [2, 7]: non- conver- gent |
| 15.8 | 34.399 | C=CCN(CC=C)S(=O)(=O)c1ccc(NC(=S)NC(=O)/C=C/c2ccc(OC)cc2)cc1 [AD4-12016] | 23.5 | – |
| 6.53 | 27.373 | Cc1cc(C)cc(NS(=O)(=O)c2ccc(NC(=S)NC(=O)CC(C)C)cc2)c1 [AD4-12017] | 5.93 | – |
| 25.3 | 30.376 | CCC(c1ccccc1)S(=O)(=O)c1ccc(NC(=S)NC(=O)C(C)C)cc1 (centres unmarked) [AD4-12029] | 51.1 | – |
| 6.61 | 43.515 | CC(C)CC(=O)NC(=S)Nc1ccc(S(=O)(=O)NC2CCCCC2)cc1 [AD4-12041] | 14.3 | – |
| 32.2 | 28.33 | CN1CCN(S(=O)(=O)c2ccc(NC(=S)NC(=O)/C=C/c3ccccc3Cl)cc2)CC1 [AD4-12059] | 37.7 | – |
| 64.5 | 34.268 | Cc1ccc(NS(=O)(=O)c2ccc(NC(=S)NC(=O)C(C)C)cc2)c(C)c1 [AD4-12062] | 18.8 | – |
| 16.2 | 29.545 | O=C(Cc1ccccc1)NC(=S)Nc1ccc(S(=O)(=O)Nc2ccccc2)cc1 [AD4-12074] | – | IC50 [2, 9]: 32.3 µM |
| 19.2 | 25.956 | O=C(COc1ccc(Cl)cc1Cl)NC(=S)Nc1ccc(S(=O)(=O)NC2CCCCC2)cc1 [AD4-12075] | 40.1 | – |
| 23.4 | 25.946 | O=C(NC(=S)Nc1ccc(S(=O)(=O)Nc2ccccc2)cc1)C1CC1 [AD4-12098] | 16.4 | – |
| 39 | 41.204 | O=C(NC(=S)Nc1ccc(S(=O)(=O)N2CCCCCC2)cc1)C1CCC1 [AD4-12104] | 37.6 | – |
| 14.1 | 41.933 | CN1CCN(S(=O)(=O)c2ccc(NC(=S)NC(=O)/C=C/c3ccc(F)cc3)cc2)CC1 [AD4-12107] | – | MTT Screen, second value of cell [2, 7]: non- conver- gent |
| 18.6 | 55.94 | COc1ccc(NS(=O)(=O)c2ccc(NC(=S)NC(=O)C3CCCC3)cc2)cc1 [AD4-12119] | 14.6 | – |
| – | 35.068 | COc1cc(NS(=O)(=O)c2ccc(NC(=S)NC(=O)/C=C/c3ccccc3)cc2)nc(OC)n1 [AD4-12122] | 40.3 | MTT Screen, first value of cell [1, 6]: non- conver- gent |
| 14.9 | 37.795 | CN(Cc1ccccc1)S(=O)(=O)c1ccc(NC(=S)NC(=O)/C=C/c2ccccc2)cc1 [AD4-12126] | 41.9 | – |
